From patent US7678918B2, “Intermediates for imidazonaphthyridines” (3M Innovative Properties Company, priority 1997, dated 2010)

How the values were obtained:
Format in all cases: cell-based
[1] = system: TNF; assay: Cytokine Induction in Human Cells: tumor necrosis factor (TNF) secreted by PBMCs, ELISA; details: 18 to 24 hours; note: call rule not given here
Outline: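 Human donor PBMCs at 1.5-2×10^6 cells/mL in RPMI with 10% FBS were exposed to compound, generally at 0.1 to 100 μM (≤1% DMSO final), for 18 to 24 h at 37 °C. Secreted TNF in supernatant was measured by ELISA and reported as pg/mL.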

[2] = system: IFN; assay: Cytokine Induction in Human Cells: interferon (IFN) secreted by PBMCs, A549/encephalomyocarditis bioassay; details: 18 to 24 hours; note: call rule not given here
Outline: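 Human PBMCs from healthy donors at 1.5-2×10^6 cells/mL in RPMI with 10% FBS, exposed to compounds (typically 0.1 to 100 μM, ≤1% DMSO) for 18 to 24 h at 37° C. Secreted IFN measured by A549/encephalomyocarditis virus cytopathic-effect bioassay, in alpha reference units/mL against NIH human leukocyte IFN standard.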

[3] = system: interferon α; assay: Interferon (α) Induction in Human Cells (PBM's, 48 hours, A549 bioassay); design: key: +: indicates that the compound induced interferon α at that particular concentration; −: indicates that the compound did not induce interferon α at that particular concentration; ±: indicates that the results were equivocal at that particular concentration; details: 48 hours incubation
Method: An in vitro human blood cell system was used to assess interferon induction by compounds of the invention. Activity is based on the measurement of interferon secreted into culture media. Interferon is measured by bioassay.
Whole blood was collected by venipuncture into EDTA vacutainer tubes. Peripheral blood mononuclear cells (PBM's) were separated from whole blood by using either LeucoPREP™ Brand Cell Separation Tubes (available from Becton Dickinson) or Ficoll-Paque® solution (available from Pharmacia LKB Biotechnology Inc, Piscataway, N.J.). The PBM's were suspended at 1×10^6/mL in RPMI 1640 media (available from GIBCO, Grand Island, N.Y.) containing 25 mM HEPES (N-2-hydroxyethylpiperazine-N′-2-ethanesulfonic acid) and L-glutamine (1% penicillin-streptomycin solution added) with 10% heat inactivated (56° C. for 30 minutes) autologous serum added. 200 μL portions of PBM suspension were added to 96 well (flat bottom) MicroTest III sterile tissue culture plates.
The compounds were solubilized in ethanol, dimethyl sulfoxide or tissue culture water then diluted with tissue culture water, 0.01N sodium hydroxide or 0.01N hydrochloric acid (The choice of solvent will depend on the chemical characteristics of the compound being tested.). Ethanol or DMSO concentration should not exceed a final concentration of 1% for addition to the culture wells. Compounds were initially tested in a concentration range of from about 0.1 μg/mL to about 5 μg/mL. Compounds which show induction at a concentration of 0.5 μg/mL were then tested in a wider concentration range.
The solution of test compound was added in a volume (less than or equal to 50 μL) to the wells containing 200 μL of diluted whole blood or of PBM's in media. Solvent and/or media was added to control wells (wells with no test compound) and as needed to adjust the final volume of each well to 250 μL. The plates were covered with plastic lids, vortexed gently and then incubated for 48 hours at 37° C. with a 5% carbon dioxide atmosphere.
Following incubation, the plates were covered with parafilm and then centrifuged at 1000 rpm for 10 to 15 minutes at 4° C. in a Damon IEC Model CRU-5000 centrifuge. Media (about 200 μL) was removed from 4 to 8 wells and pooled into 2 mL sterile freezing vials. Samples were maintained at −70° C. until analysis.
Interferon was determined by bioassay using A549 human lung carcinoma cells challenged with encephalomyocarditis. The details of the bioassay method have been described by G. L. Brennan and L. H. Kronenberg in “Automated Bioassay of Interferons in Micro-test Plates”, Biotechniques, June/July 78, 1983, incorporated herein by reference. Briefly stated the method is as follows: interferon dilutions and A549 cells are incubated at 37° C. for 12 to 24 hours. The incubated cells are infected with an inoculum of encephalomyocarditis virus. The infected cells are incubated for an additional period at 37° C. before quantifying for viral cytopathic effect. The viral cytopathic effect is quantified by staining followed by spectrophotometric absorbance measurements. Results are expressed as alpha reference units/mL based on the value obtained for NIH HU IF-L standard. The interferon was identified as essentially all interferon alpha by testing in checkerboard neutralization assays against rabbit anti-human interferon (beta) and goat anti-human interferon (alpha) using A549 cell monolayers challenged with encephalomyocarditis virus.

Row | SMILES | TNF induction ([1]; Dose Concentration 0.1 μM) | TNF induction ([1]; Dose Concentration 1.0 μM) | TNF induction ([1]; Dose Concentration 10.0 μM) | TNF induction ([1]; Dose Concentration 100.0 μM) | IFN induction ([2]; Dose Concentration 0.1 μM) | IFN induction ([2]; Dose Concentration 1.0 μM) | IFN induction ([2]; Dose Concentration 10.0 μM) | IFN induction ([2]; Dose Concentration 100.0 μM) | Interferon (α) Induction in Human Cells ([3]; Dose Concentration 0.01 μg/mL) | Interferon (α) Induction in Human Cells ([3]; Dose Concentration 0.05 μg/mL) | Interferon (α) Induction in Human Cells ([3]; Dose Concentration 0.10 μg/mL) | Interferon (α) Induction in Human Cells ([3]; Dose Concentration 0.50 μg/mL) | Interferon (α) Induction in Human Cells ([3]; Dose Concentration 1.0 μg/mL) | Interferon (α) Induction in Human Cells ([3]; Dose Concentration 5.0 μg/mL) | Interferon (α) Induction in Human Cells ([3]; Dose Concentration 10.0 μg/mL) | Interferon (α) Induction in Human Cells ([3]; Dose Concentration 25.0 μg/mL) | Interferon (α) Induction in Human Cells ([3]; Dose Concentration 50.0 μg/mL)
1 | CC(C)Cn1cnc2c(N)nc3ncccc3c21 [Example 9, 1-(2-Methylpropyl)-1H-imidazo[4,5-c][1,8]naphthyridin-4-amine hydrate] | − | − | − | − | ± | − | + | − | − | − | − | − | − | − | − | − | −
2 | CCCCc1nc2c(N)nc3cccnc3c2n1CCCCNC(=O)Cc1ccc(OC)cc1 [Example 187] | − | + | + | − | − | + | + | + |  |  |  |  |  |  |  |  | 
3 | CCCCc1nc2c(N)nc3cccnc3c2n1CCCCNC(=O)c1ccccc1OC [Example 188] | − | + | + | − | + | + | + | − |  |  |  |  |  |  |  |  | 
4 | CCCCCCCOc1ccc(C(=O)NCCCCn2c(CCCC)nc3c(N)nc4cccnc4c32)cc1 [Example 190] | − | + | + | − | + | + | + | − |  |  |  |  |  |  |  |  | 
5 | CCCCc1nc2c(N)nc3cccnc3c2n1CCNC(=O)Cc1ccsc1 [Example 191] |  | − | + | + |  | + | + | + |  |  |  |  |  |  |  |  | 
6 | CCCCc1nc2c(N)nc3cccnc3c2n1CCNC(=O)CCCc1ccc([N+](=O)[O-])cc1 [Example 195] | − | + | + | + | − | − | + | − |  |  |  |  |  |  |  |  | 
7 | CCCCc1nc2c(N)nc3cccnc3c2n1CCNC(=O)Cc1ccc(SC)cc1 [Example 197] | − | + | + | + | − | − | + | + |  |  |  |  |  |  |  |  | 
8 | CCCCc1nc2c(N)nc3cccnc3c2n1CCNC(=O)C1C2CC3C(C2=O)C31 (stereo not drawn) [Example 198] | − | + | + | + | − | − | + | + |  |  |  |  |  |  |  |  | 
9 | CCCCc1nc2c(N)nc3cccnc3c2n1CCNC(=O)CCC(F)(F)F [Example 199] | − | − | + | + | + | − | + | + |  |  |  |  |  |  |  |  | 
10 | CCCCCCCCCCCC(=O)NCCn1c(CCCC)nc2c(N)nc3cccnc3c21 [Example 201] | − | − | − | + | − | − | − | − |  |  |  |  |  |  |  |  | 
11 | CCCCc1nc2c(N)nc3cccnc3c2n1CCNC(=O)c1ccc(Br)s1 [Example 204] | − | + | + | + | + | + | + | + |  |  |  |  |  |  |  |  | 
12 | CCCCc1nc2c(N)nc3cccnc3c2n1CCNC(=O)c1cnc(C)cn1 [Example 205] | − | + | + | + | + | + | + | + |  |  |  |  |  |  |  |  | 
13 | CCCCc1nc2c(N)nc3cccnc3c2n1CCNC(=O)c1ccc(Br)o1 [Example 206] | − | + | + | + | + | + | + | + |  |  |  |  |  |  |  |  | 
14 | CCCCc1nc2c(N)nc3cccnc3c2n1CCNC(=O)Cc1cccnc1 [Example 207] | − | − | + | + | − | − | + | + |  |  |  |  |  |  |  |  | 
15 | CCCCc1nc2c(N)nc3cccnc3c2n1CCNC(=O)CCc1cccnc1 [Example 208] | − | − and ± | − and + | − and + | − | − | + | + |  |  |  |  |  |  |  |  | 
16 | CCCCc1nc2c(N)nc3cccnc3c2n1CCNC(=O)CCn1cc([N+](=O)[O-])nc1C [Example 209] | − | − | + | + | − | − | + | + |  |  |  |  |  |  |  |  | 
17 | CCCCc1nc2c(N)nc3cccnc3c2n1CCNC(=O)C1CC(=O)N(Cc2ccc(Cl)cc2)C1 (stereo not drawn) [Example 210] | + | + | + | + | − | − | + | + |  |  |  |  |  |  |  |  | 
18 | CCCCc1nc2c(N)nc3cccnc3c2n1CCNC(=O)CCN1C(=O)c2ccccc2C1=O [Example 211] | − | − | + | + | − | − | + | + |  |  |  |  |  |  |  |  | 
19 | CCCCc1nc2c(N)nc3cccnc3c2n1CCNC(=O)CCC(=O)c1cccs1 [Example 212] | − | + | + | + | − | + | + | + |  |  |  |  |  |  |  |  | 
